# Laboratory results taken from patent US20210115104A1, “AMYLIN ANALOGUES” (Zealand Pharma A/S, priority 2015, published 2021).
# *1 amine or outer side, *2 acyl side, *3 side chain or, on linkers, in order; H or OH if unused. Where a SMILES comes first, the peptide text is derived from it. Bridges are numbered along the chain shown (N, C = ends). [ ]: non-standard residue; d: D form. The star is where a group is joined. C20 diacid = O=C(O)CCCCCCCCCCCCCCCCCCC(=O)*; γGlu = O=C(O)[C@H](CCC(=O)[*:2])N[*:1]; Hyp = O=C(O)[C@@H]1C[C@@H](O)CN1; NMeI = CC[C@H](C)[C@H](NC)C(=O)O; Sar = CNCC(=O)O
# Key:
# [1] = target: T1, human amylin receptor 3 (hAMYR3), hCTR2 co-expressed with hRAMP3 (Homo sapiens, UniProt O60896+P30988); assay: hAMYR3 cAMP assay (AlphaScreen) in COS7 cells; type: cell-based; conditions: cAMP induction, COS7 cells expressing hAMYR3; Table 1; read-out: hAMYR3 EC50
# T1 construct: expressed in transfected cells
# T1 sequence (P30988 25-474): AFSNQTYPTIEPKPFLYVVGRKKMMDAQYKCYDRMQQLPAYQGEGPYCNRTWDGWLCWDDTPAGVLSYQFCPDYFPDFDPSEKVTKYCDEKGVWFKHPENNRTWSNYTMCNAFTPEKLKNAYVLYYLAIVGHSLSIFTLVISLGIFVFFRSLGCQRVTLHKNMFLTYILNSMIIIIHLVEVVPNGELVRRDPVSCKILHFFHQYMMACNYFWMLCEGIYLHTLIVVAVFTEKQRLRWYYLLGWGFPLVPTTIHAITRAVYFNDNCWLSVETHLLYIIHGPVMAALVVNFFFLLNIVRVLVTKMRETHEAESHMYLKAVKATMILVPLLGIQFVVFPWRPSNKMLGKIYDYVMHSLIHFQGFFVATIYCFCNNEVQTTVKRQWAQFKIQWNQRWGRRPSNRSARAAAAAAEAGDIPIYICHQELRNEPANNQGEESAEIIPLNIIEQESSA
# T1 sequence (O60896 24-148 partner): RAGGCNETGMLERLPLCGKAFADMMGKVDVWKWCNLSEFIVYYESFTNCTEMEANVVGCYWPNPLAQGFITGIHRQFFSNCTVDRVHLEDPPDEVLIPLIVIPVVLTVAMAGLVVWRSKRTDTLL
# Procedure, shortened: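 EC50 values derive from 4PL curve fits of cAMP (AlphaScreen) in lysates of RAMP-naive COS7 cells stably carrying hCTR2 plus hRAMP3. Peptide dilution series were applied for 15 min at 37 °C in pH 7.4 Tyrode buffer containing 100 µM IBMX and 0.1% casein.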
# [2] = target: T2, human calcitonin receptor (hCTR2) (Homo sapiens, UniProt P30988); assay: hCTR2 cAMP assay (AlphaScreen) in COS7 cells; type: cell-based; conditions: cAMP induction, COS7 cells expressing hCTR2; Table 1; read-out: hCTR2 EC50
# T2 construct: expressed in transfected cells
# T2 sequence (P30988 25-474): T1 sequence (P30988 25-474)
# Procedure, shortened: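 cAMP induction, read by AlphaScreen after lysis, gives EC50 values via 4PL curve fitting. Peptides were applied at rising concentrations for 15 min at 37 °C, with IBMX and 0.1% casein in HEPES-buffered Tyrode pH 7.4, to COS7 cells (no endogenous RAMPs) stably expressing human CTR2.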
SMILES,EC50 [1] [pM],EC50 [2] [pM]
"CC[C@H](C)[C@@H](C(=O)N[C@@H](CC(C)C)C(=O)N[C@@H](CO)C(=O)N[C@@H](CO)C(=O)N[C@H](C(=O)N[C@@H](CCC(=O)O)C(=O)N[C@H](C(=O)NCC(=O)N[C@@H](CO)C(=O)N[C@@H](CC(N)=O)C(=O)N[C@H](C(=O)N1CCC[C@H]1C(N)=O)[C@@H](C)O)C(C)C)[C@@H](C)O)N(C)C(=O)[C@H](C)NC(=O)CN(C)C(=O)[C@H](Cc1ccccc1)NC(=O)[C@H](CO)NC(=O)[C@H](CO)NC(=O)[C@H](CCCNC(=N)N)NC(=O)[C@H](CCC(N)=O)NC(=O)[C@H](CC(C)C)NC(=O)[C@H](Cc1ccccc1)NC(=O)[C@H](Cc1c[nH]cn1)NC(=O)[C@H](C)NC(=O)[C@H](CC(C)C)NC(=O)[C@H](CCCNC(=N)N)NC(=O)[C@H](CCC(=O)O)NC(=O)[C@@H](NC(=O)[C@H](C)NC(=O)[C@@H]1CSSC[C@H](NC(=O)[C@H](CCCNC(=N)N)NC(=O)CC[C@H](NC(=O)CCCCCCCCCCCCCCCCCCC(=O)O)C(=O)O)C(=O)N[C@@H](CC(N)=O)C(=O)N[C@@H]([C@@H](C)O)C(=O)N[C@@H](C)C(=O)N[C@@H]([C@@H](C)O)C(=O)N1)[C@@H](C)O [Compound 62, [19CD]-isoGlu-R-C( )-NTAT-C( )-ATERLAHFLQRSSF-Gly(Me)-A-Ile(Me)-LSSTEVGSNTP-NH2] ({C20 diacid-γGlu}-RCNTATCATERLAHFLQRSSF[Sar]A[NMeI]LSSTEVGSNTP-NH2; disulfide 2-7)",220,180
"CC[C@H](C)[C@@H](C(=O)N[C@@H](CC(C)C)C(=O)N[C@@H](CO)C(=O)N[C@@H](CO)C(=O)N[C@H](C(=O)N[C@@H](CCC(=O)O)C(=O)N[C@H](C(=O)NCC(=O)N[C@@H](CO)C(=O)N[C@@H](CC(N)=O)C(=O)N[C@H](C(=O)N1C[C@H](O)C[C@H]1C(N)=O)[C@@H](C)O)C(C)C)[C@@H](C)O)N(C)C(=O)[C@H](C)NC(=O)CN(C)C(=O)[C@H](Cc1ccccc1)NC(=O)[C@H](CO)NC(=O)[C@H](CO)NC(=O)[C@H](CCCNC(=N)N)NC(=O)[C@H](CCC(N)=O)NC(=O)[C@H](CC(C)C)NC(=O)[C@H](Cc1ccccc1)NC(=O)[C@H](Cc1c[nH]cn1)NC(=O)[C@H](C)NC(=O)[C@H](CC(C)C)NC(=O)[C@H](CCCNC(=N)N)NC(=O)[C@H](CCC(N)=O)NC(=O)[C@@H](NC(=O)[C@H](C)NC(=O)[C@@H]1CSSC[C@H](NC(=O)[C@H](CCCNC(=N)N)NC(=O)CC[C@H](NC(=O)CCCCCCCCCCCCCCCCCCC(=O)O)C(=O)O)C(=O)N2CCC[C@H]2C(=O)N[C@@H]([C@@H](C)O)C(=O)N[C@@H](C)C(=O)N[C@@H]([C@@H](C)O)C(=O)N1)[C@@H](C)O [Compound 64, [19CD]-isoGlu-R-C( )-PTAT-C( )-ATQRLAHFLQRSSF-Gly(Me)-A-Ile(Me)-LSSTEVGSNT-Hyp-NH2] ({C20 diacid-γGlu}-RCPTATCATQRLAHFLQRSSF[Sar]A[NMeI]LSSTEVGSNT[Hyp]-NH2; disulfide 2-7)",150,110
"CC[C@H](C)[C@@H](C(=O)N[C@@H](CC(C)C)C(=O)N[C@@H](CO)C(=O)N[C@@H](CO)C(=O)N[C@H](C(=O)N[C@@H](CCC(=O)O)C(=O)N[C@H](C(=O)NCC(=O)N[C@@H](CO)C(=O)N[C@@H](CC(N)=O)C(=O)N[C@H](C(=O)N1CCC[C@H]1C(N)=O)[C@@H](C)O)C(C)C)[C@@H](C)O)N(C)C(=O)[C@H](C)NC(=O)CN(C)C(=O)[C@H](Cc1ccccc1)NC(=O)[C@H](CO)NC(=O)[C@H](CO)NC(=O)[C@H](CCCNC(=N)N)NC(=O)[C@H](CCC(N)=O)NC(=O)[C@H](CC(C)C)NC(=O)[C@H](Cc1ccccc1)NC(=O)[C@H](CC(=O)O)NC(=O)[C@H](C)NC(=O)[C@H](CC(C)C)NC(=O)[C@H](CCCNC(=N)N)NC(=O)[C@H](CCC(=O)O)NC(=O)[C@@H](NC(=O)[C@H](C)NC(=O)[C@@H]1CSSC[C@H](NC(=O)[C@H](CCCNC(=N)N)NC(=O)CC[C@H](NC(=O)CCCCCCCCCCCCCCCCCCC(=O)O)C(=O)O)C(=O)N[C@@H](CC(N)=O)C(=O)N[C@@H]([C@@H](C)O)C(=O)N[C@@H](C)C(=O)N[C@@H]([C@@H](C)O)C(=O)N1)[C@@H](C)O [Compound 66, [19CD]-isoGlu-R-C( )-NTAT-C( )-ATERLADFLQRSSF-Gly(Me)-A-Ile(Me)-LSSTEVGSNTP-NH2] ({C20 diacid-γGlu}-RCNTATCATERLADFLQRSSF[Sar]A[NMeI]LSSTEVGSNTP-NH2; disulfide 2-7)",300,190
"CC[C@H](C)[C@@H](C(=O)N[C@@H](CC(C)C)C(=O)N[C@@H](CO)C(=O)N[C@@H](CO)C(=O)N[C@H](C(=O)N[C@@H](CCC(=O)O)C(=O)N[C@H](C(=O)NCC(=O)N[C@@H](CO)C(=O)N[C@@H](CC(N)=O)C(=O)N[C@H](C(=O)N1C[C@H](O)C[C@H]1C(N)=O)[C@@H](C)O)C(C)C)[C@@H](C)O)N(C)C(=O)[C@H](C)NC(=O)CN(C)C(=O)[C@H](Cc1ccccc1)NC(=O)[C@H](CO)NC(=O)[C@H](CO)NC(=O)[C@H](CCCNC(=N)N)NC(=O)[C@H](CCC(N)=O)NC(=O)[C@H](CC(C)C)NC(=O)[C@H](Cc1ccccc1)NC(=O)[C@H](CC(=O)O)NC(=O)[C@H](C)NC(=O)[C@H](CC(C)C)NC(=O)[C@H](CCCNC(=N)N)NC(=O)[C@H](CCC(=O)O)NC(=O)[C@@H](NC(=O)[C@H](C)NC(=O)[C@@H]1CSSC[C@H](NC(=O)[C@H](CCCNC(=N)N)NC(=O)CC[C@H](NC(=O)CCCCCCCCCCCCCCCCCCC(=O)O)C(=O)O)C(=O)N[C@@H](CC(N)=O)C(=O)N[C@@H]([C@@H](C)O)C(=O)N[C@@H](C)C(=O)N[C@@H]([C@@H](C)O)C(=O)N1)[C@@H](C)O [Compound 68, [19CD]-isoGlu-R-C( )-NTAT-C( )-ATERLADFLQRSSF-Gly(Me)-A-Ile(Me)-LSSTEVGSNT-Hyp-NH2] ({C20 diacid-γGlu}-RCNTATCATERLADFLQRSSF[Sar]A[NMeI]LSSTEVGSNT[Hyp]-NH2; disulfide 2-7)",290,320
"CC[C@H](C)[C@@H](C(=O)N[C@@H](CC(C)C)C(=O)N[C@@H](CO)C(=O)N[C@@H](CO)C(=O)N[C@H](C(=O)N[C@@H](CCC(=O)O)C(=O)N[C@H](C(=O)NCC(=O)N[C@@H](CO)C(=O)N[C@@H](CO)C(=O)N[C@H](C(=O)N1C[C@H](O)C[C@H]1C(N)=O)[C@@H](C)O)C(C)C)[C@@H](C)O)N(C)C(=O)[C@H](C)NC(=O)CN(C)C(=O)[C@H](Cc1ccccc1)NC(=O)[C@H](CO)NC(=O)[C@H](CO)NC(=O)[C@H](CCCNC(=N)N)NC(=O)[C@H](CCC(N)=O)NC(=O)[C@H](CC(C)C)NC(=O)[C@H](Cc1ccccc1)NC(=O)[C@H](Cc1c[nH]cn1)NC(=O)[C@H](C)NC(=O)[C@H](CC(C)C)NC(=O)[C@H](CCCNC(=N)N)NC(=O)[C@H](CCC(=O)O)NC(=O)[C@@H](NC(=O)[C@H](C)NC(=O)[C@@H]1CSSC[C@H](NC(=O)[C@H](CCCNC(=N)N)NC(=O)CC[C@H](NC(=O)CCCCCCCCCCCCCCCCCCC(=O)O)C(=O)O)C(=O)N2CCC[C@H]2C(=O)N[C@@H]([C@@H](C)O)C(=O)N[C@@H](C)C(=O)N[C@@H]([C@@H](C)O)C(=O)N1)[C@@H](C)O [Compound 70, [19CD]-isoGlu-R-C( )-PTAT-C( )-ATERLAHFLQRSSF-Gly(Me)-A-Ile(Me)-LSSTEVGSST-Hyp-NH2] ({C20 diacid-γGlu}-RCPTATCATERLAHFLQRSSF[Sar]A[NMeI]LSSTEVGSST[Hyp]-NH2; disulfide 2-7)",360,350
"CC[C@H](C)[C@@H](C(=O)N[C@@H](CC(C)C)C(=O)N[C@@H](CO)C(=O)N[C@@H](CO)C(=O)N[C@H](C(=O)N[C@@H](CCC(=O)O)C(=O)N[C@H](C(=O)NCC(=O)N[C@@H](CO)C(=O)NCC(=O)N[C@H](C(=O)N1C[C@H](O)C[C@H]1C(N)=O)[C@@H](C)O)C(C)C)[C@@H](C)O)N(C)C(=O)[C@H](C)NC(=O)CN(C)C(=O)[C@H](Cc1ccccc1)NC(=O)[C@H](CO)NC(=O)[C@H](CO)NC(=O)[C@H](CCCNC(=N)N)NC(=O)[C@H](CCC(N)=O)NC(=O)[C@H](CC(C)C)NC(=O)[C@H](Cc1ccccc1)NC(=O)[C@H](Cc1c[nH]cn1)NC(=O)[C@H](C)NC(=O)[C@H](CC(C)C)NC(=O)[C@H](CCCNC(=N)N)NC(=O)[C@H](CCC(=O)O)NC(=O)[C@@H](NC(=O)[C@H](C)NC(=O)[C@@H]1CSSC[C@H](NC(=O)[C@H](CCCNC(=N)N)NC(=O)CC[C@H](NC(=O)CCCCCCCCCCCCCCCCCCC(=O)O)C(=O)O)C(=O)N2CCC[C@H]2C(=O)N[C@@H]([C@@H](C)O)C(=O)N[C@@H](C)C(=O)N[C@@H]([C@@H](C)O)C(=O)N1)[C@@H](C)O [Compound 72, [19CD]-isoGlu-R-C( )-PTAT-C( )-ATERLAHFLQRSSF-Gly(Me)-A-Ile(Me)-LSSTEVGSGT-Hyp-NH2] ({C20 diacid-γGlu}-RCPTATCATERLAHFLQRSSF[Sar]A[NMeI]LSSTEVGSGT[Hyp]-NH2; disulfide 2-7)",270,350
